Experiment [1] relates to human prostate adenocarcinoma cell line (LNCaP). Description: MTT assay, growth inhibition of LNCaP cells. To be noted: for IC50: Homo sapiens, MTT, 48 hours incubation, LNCaP, read-out: LNCaP (IC50). The experiment is classed as cell-based. As to the method: (§1) To evaluate the anticancer activity of the oxindole derivatives produced and analyzed in examples 1 to 8, MTT assay was performed to confirm the growth inhibitory effect on cancer cells. More specifically, human prostate adenocarcinoma cell line (LNCaP), human breast cancer cell line (MCF-7), human ovarian cancer cell line (SKOV3), human lung cancer cell line […] and human renal adenocarcinoma cell line (786-O) were cultured in DMEM medium supplemented with 1% penicillin/streptomycin and 10% fetal bovine serum (All from Life Technologies, Grand Island, N.Y.). Cells were seeded in 96-well plates (3×10^3 cells/well) containing 100 μL of growth medium for 24 hours. After the medium was removed, 100 μL of each of the different analogues (dissolved in DMSO to 0.025% or less) was added to each well and cultured at 37° C. for 48 hours. After 48 hours of incubation, 100 μL of MTT reagent was added to each well. After incubation at 37° C. for 4 hours, the supernatant was aspirated, and the formazan crystals were dissolved in 100 μL of DMSO at 37° C. for 10 minutes with gentle stirring. Absorbance per well was measured at 540 nm using a VERSA max microplate reader (Molecular Devices Corp.). IC50 values were defined as compound concentrations that inhibited cell proliferation by 50% compared to cells treated with the highest amount of DMSO (0.025%) and were considered to be 100% viability.
On the technique in general: Tetrazolium dyes change colour on reduction, which living cells bring about.

The subject of experiment [2] is human breast cancer cell line (MCF-7). Description: MTT assay, growth inhibition of MCF-7 cells. Particulars: MCF7, MTT, 48 hours incubation, MCF-7, read-out: MCF-7 (IC50). The experiment is classed as cell-based. As to the method: as §1
Experiment [3] deals with human ovarian cancer cell line (SKOV3). Description: MTT assay, growth inhibition of SKOV3 cells. The experiment is classed as cell-based. Particulars: SK-OV-3, MTT, 48 hours incubation, SKOV3, read-out: SKOV3 (IC50). The protocol:
as §1

Experiment [4] relates to human lung cancer cell line (A459). In words: MTT assay, growth inhibition of A549 cells. The format is cell-based. To be noted: Homo sapiens; MTT, 48 hours incubation, A549; read-out: A549 (IC50). As to the method:
as §1

Experiment [5] deals with human renal adenocarcinoma cell line (786-O). Description: MTT assay, growth inhibition of 786-O cells. The experiment is classed as cell-based. Particulars: Homo sapiens, 786-0; MTT, 48 hours incubation, 786-O; read-out: 786-O (IC50). The protocol:
as §1

A further experiment has as its system all carcinomas. In words: MTT assay, summary over all five cancer cell lines. The format is cell-based, human. To be noted: summary of Table 3, all five cell lines. As to the method: as §1

A value given as a limit tells only on which side of the number the result lay.

As usually defined, the IC50 is the concentration needed to halve the response being measured. As for `CNC(=O)CC1C(=O)N(Nc2cccc(Cl)c2C)c2c1ccc(Cl)c2C` (centres unmarked) [3e, 2-(6-Chloro-1-((3-chloro-2-methylphenyl)amino)-7-methyl-2-oxoindolin-3-yl)-N-methylacetamide], the IC50 in experiment [1] stood at 15.5 µM; in experiment [2], 20.5 µM; in experiment [3] it was 21.3 µM; in experiment [4], 33.3 µM; in experiment [5] it was 14.7 µM. For the same compound, in the experiment with all carcinomas, the “inhibitory activity against all carcinomas (in words)” value is recorded as “excellent”.

Regarding `CNC(=O)CC1C(=O)N(Nc2cccc(Br)c2C)c2c1ccc(Br)c2C` (centres unmarked) [3f, 2-(6-bromo-1-((3-bromo-2-methylphenyl)amino)-7-methyl-2-oxoindolin-3-yl)-N-methylacetamide], the IC50 in experiment [1] worked out at 12.8 µM; in experiment [2] it was 14.8 µM; in experiment [3] it was 16.9 µM; in experiment [4], 24 µM; in experiment [5] it was 13.3 µM. In addition, the “inhibitory activity against all carcinomas (in words)” value with all carcinomas is reported as “excellent”.

Regarding `CCc1ccccc1NN1C(=O)C(CC(=O)NCc2ccccc2)c2cccc(CC)c21` (centres unmarked) [4c, N-Benzyl-2-(7-ethyl-1-((2-ethylphenyl)amino)-2-oxoindolin-3-yl)acetamide], the IC50 in experiment [1] came out at 12.2 µM; in experiment [2] it was 16.6 µM; in experiment [3] it was 20.3 µM; in experiment [4], 28.9 µM; in experiment [5], 10.5 µM. Besides, the “inhibitory activity against all carcinomas (in words)” value in the experiment with all carcinomas was “excellent”.

`CCc1ccccc1NN1C(=O)C(CC(=O)Nc2ccccc2)c2cccc(CC)c21` (centres unmarked) [4g, 2-(7-Ethyl-1-((2-ethylphenyl)amino)-2-oxoindolin-3-yl)-N-phenylacetamide]: the IC50 in experiment [1] came out at 6 µM; in experiment [2] it was 9.6 µM; in experiment [3] it was 13.8 µM; in experiment [4], 16.8 µM; in experiment [5] it was 4.8 µM. For the same compound, the “inhibitory activity against all carcinomas (in words)” value with all carcinomas is reported as “excellent”.

On to `CCCCOC(=O)CC1C(=O)N(Nc2ccccc2CC)c2c(CC)cccc21` (centres unmarked) [6b, Butyl 2-(7-ethyl-1-((2-ethylphenyl)amino)-2-oxoindolin-3-yl)acetate], for which the IC50 is 13.9 µM in experiment [1]; 14.7 µM in experiment [2]; 15.1 µM in experiment [3]; 17.6 µM in experiment [4]; 12.2 µM in experiment [5]. For the same compound, in the experiment on all carcinomas, the “inhibitory activity against all carcinomas (in words)” value is “excellent”.

Take `CCc1ccccc1NN1C(=O)C(CC(=O)OC(C)C)c2cccc(CC)c21` (centres unmarked) [6c, Isopropyl 2-(7-ethyl-1-((2-ethylphenyl)amino)-2-oxoindolin-3-yl)acetate]: the IC50 in experiment [1] is 14.5 µM; in experiment [2], 45.5 µM; in experiment [3] it was greater than 50 µM; in experiment [4], greater than 50 µM; in experiment [5], 30.5 µM. For the same compound, the “inhibitory activity in LNCaP (in words)” value in experiment [1] (summary of Table 3, LNCaP) is “excellent activity”.

Regarding `CCc1ccccc1NN1C(=O)C(CC(=O)OCC(C)C)c2cccc(CC)c21` (centres unmarked) [6d, Isobutyl 2-(7-ethyl-1-((2-ethylphenyl)amino)-2-oxoindolin-3-yl)acetate], the IC50 was 12.5 µM in experiment [1]; 14.2 µM in experiment [2]; 14.5 µM in experiment [3]; 22.5 µM in experiment [4]; 12.6 µM in experiment [5]. In addition, the “inhibitory activity against all carcinomas (in words)” value in the experiment with all carcinomas is reported as “excellent”.

With `CCCCOC(=O)c1[nH]c2cc(CC)ccc2c1C(=O)OCCCC` [7a, Dibutyl 6-ethyl-1H-indole-2,3-dicarboxylate], the IC50 came to 14.5 µM in experiment [1]; 20.6 µM in experiment [2]; 22.1 µM in experiment [3]; 24.4 µM in experiment [4]; 13.2 µM in experiment [5]. Besides, the “inhibitory activity against all carcinomas (in words)” value with all carcinomas is on record as “excellent”.

Turning to `CCc1cccc2c1NC(=O)C2CC(=O)OC(C)C` (centres unmarked) [8b, Isopropyl 2-(7-ethyl-2-oxoindolin-3-yl)acetate], the IC50 in experiment [1], in experiment [2], in experiment [3], in experiment [4] and in experiment [5] was greater than 50 µM throughout.

For the origin of these results see patent US10322999B2, “Oxindoles derivatives, preparation method thereof and pharmaceutical compositions for the prevention or treatment of cancer containing the same as an active ingredient” (RESEARCH & BUSINESS FOUNDATION SUNGKYUNKWAN UNIVERSITY, priority 2017, dated 2019).
